According to US12364689B2, “Dosage regimen for the treatment of cancer” (AstraZeneca AB, priority 2020, dated 2025):

What was measured:
[1] = system: ER positive, HER2 negative advanced breast cancer; test: Phase 1 dose-escalation and expansion clinical trial: anti-tumour activity by RECIST 1.1; assay type: in vivo, human; details: for ORR (%) objective response rate: responders/evaluable (percent)
Source text: “Objective response rate” is the percentage of patients with measurable disease at baseline and who have a date of first dose of >17 weeks or a date of post-treatment scan of >15 weeks that indicates a confirmed response as measured by the RECIST criteria. “Clinical benefit rate” is the percentage of patients who have a date of first dose of ≥25 weeks or a date of post-treatment scan of >23 weeks that indicates a confirmed response or stable disease as measured by the RECIST criteria for >23 weeks post treatment. Introduction: To determine the optimal dosing regimen for AZD9833 Phase 1 dose-escalation and expansion in patients with ER positive, HER2 negative advanced breast cancer was carried out according to the following basic protocol. Overall Design: This is a multicentre dose escalation and expansion, first-in-human study designed to evaluate the safety and tolerability of AZD9833 alone (Parts A and B) in women with endocrine-resistant ER+HER2-breast cancer that is not amenable to treatment with curative intent. Efficacy Assessment: Anti-tumour activity will be evaluated using RECIST 1.1 by investigator assessments. Baseline tumour assessments should encompass all areas of known predilection for metastases in the disease under evaluation and should additionally investigate areas that may be involved based on signs and symptoms of individual subjects. Baseline assessments should be performed no more than 28 days before the start of AZD9833, ideally, as close as possible to the start of AZD9833. The methods of assessment used at baseline should be used at each subsequent assessment during treatment and follow-up part of the study. Any other sites at which new disease is suspected should also be appropriately imaged. If an unscheduled assessment is performed and the subject has not progressed, every attempt should be made to perform subsequent assessments at the scheduled visits while the subject remains on AZD9833 or until they have progressed. Categorisation of objective tumour response assessment will be based on the RECIST 1.1 guidelines for response: complete response (CR), partial response (PR), stable disease (SD), and progression of disease (PD). For subjects who only have non-measurable disease at baseline, categorisation of objective tumour response assessment will be based on the RECIST 1.1 guidelines for response for non-target lesions (NTLs): CR, PD, and non-CR/non PD. If the investigator is unsure whether progression has occurred, particularly with response to NTLs or the appearance of a new lesion, it is advisable to continue AZD9833 and reassess the subject's status at the next scheduled assessment, or sooner if clinically indicated. To achieve ‘unequivocal progression’ on the basis of non-target disease, there must be an overall level of substantial worsening in non-target disease such that, even in presence of SD or PR in the target disease, the overall tumour burden has increased sufficiently to merit discontinuation of therapy. A modest increase in the size of one or more NTLs is usually not sufficient to qualify for unequivocal disease progression status. A clinical trial according to the above protocol was carried out using 60 patients.

[2] = system: ER signalling pathway / Ki67; test: Phase 1 clinical trial: pharmacodynamic biomarkers in paired tumour biopsies; assay type: in vivo, human
Source text: Pharmacodynamics: Pharmacodynamic measurements will be made on a number of biomarkers (e.g., optional tumour biopsies, plasma ctDNA, CTC, and archival tumour tissue). Biological samples (archival tumour tissue, mandatory and optional biopsies where applicable) will be collected for the analysis of tumour DNA as an exploratory objective in this study. A 2-mL blood sample for DNA isolation will be collected prior to administration of the first dose of AZD9833 from subjects who have consented to participate in the genetic analysis component of this study. If for any reason the sample is not drawn prior to dosing, it may be taken at any visit until the last study visit. Only one sample for genetic research should be collected per subject during the study. Participation is optional.
In Part A, paired tumour biopsy samples will be taken from at least 2 subjects at each dose level. In Part B, these biopsies will be taken from at least 5 post-menopausal subjects at each AZD9833 dose level, 300 mg, 150 mg and 75 mg and at least 5 from pre-menopausal subjects at 300 mg. If subjects are willing to participate in this part of the study, they will sign a biopsy-specific written informed consent. Paired tumour biopsies will be obtained from subjects with accessible tumours who have consented to biopsies. […]

Compound: C[C@@H]1Cc2c(ccc3[nH]ncc23)[C@@H](c2ccc(NC3CN(CCCF)C3)cn2)N1CC(F)(F)F [AZD9833, N-(1-(3-fluoropropyl)azetidin-3-yl)-6-((6S,8R)-8-methyl-7-(2,2,2-trifluoroethyl)-6,7,8,9-tetrahydro-3H-pyrazolo[4,3-f]isoquinolin-6-yl) pyridin-3-amine]
- CBR (%) clinical benefit rate at 24 weeks ([1]; 25 mg QD oral (n = 12)): 4/12 (33.3) %
- ORR (%) objective response rate ([1]; 25 mg QD oral (n = 12)): 1/9 (11.1) %
- CBR (%) clinical benefit rate at 24 weeks ([1]; 75 mg QD oral (n = 12)): 8/12 (66.7) %
- ORR (%) objective response rate ([1]; 75 mg QD oral (n = 12)): 1/7 (14.3) %
- CBR (%) clinical benefit rate at 24 weeks ([1]; 150 mg QD oral (n = 13)): 4/13 (30.8) %
- ORR (%) objective response rate ([1]; 150 mg QD oral (n = 13)): 2/11 (18.2) %
- CBR (%) clinical benefit rate at 24 weeks ([1]; 300 mg QD oral (n = 13)): 3/11 (27.3) %
- ORR (%) objective response rate ([1]; 300 mg QD oral (n = 13)): 2/10 (20.0) %
- CBR (%) clinical benefit rate at 24 weeks ([1]; 450 mg QD oral (n = 10)): 3/4 (75.0) %
- ORR (%) objective response rate ([1]; 450 mg QD oral (n = 10)): 1/6 (16.7) %
- CBR (%) clinical benefit rate at 24 weeks ([1]; Total, all doses (n = 60)): 22/52 (42.3) %
- ORR (%) objective response rate ([1]; Total, all doses (n = 60)): 7/43 (16.3) %
- Evidence of clinical benefit and target engagement ([1]; women with ER+ ABC, incl. pre-treated with CDK4/6 inhibitors and fulvestrant, and ESR1 mutations): observed at all dose levels
- ER signalling pathway modulation ([2]; all dose cohorts): observed in all dose cohorts
- reduction in Ki67 ([2]; patients where clinical responses occurred and paired biopsies obtained): 98%
